These are literature values, as cited in patent US8236817B2, “Polymorphs of 1-cyclopropy1-7-([s,s])-2,8-diazadicyclo[4.3.0]non-8-yl)-6-fluoro-1,4-dihydro-8-methoxy-4-oxo-3-quinoline carboxylic acid hydrochloride and methods for the preparation thereof” (Chemi S.p.A., priority 2003, dated 2012).

Structures are written as SMILES.

For the data set the following is noted: solid form exposed to atmosphere; stated in U.S. Pat. No. 5,849,752.

On to `COc1c(N2C[C@@H]3CCCN[C@@H]3C2)c(F)cc2c(=O)c(C(=O)O)cn(C3CC3)c12.Cl` [anhydrous form], for which the hygroscopicity entry is “absorbs water from the atmosphere”.
